Earlier results, collected in patent US20110301091A1, “COMPOSITIONS AND METHODS FOR REDUCING THE SIGNS OF AGING OF THE SKIN” (priority 2008, published 2011).

Experiments:
photoaging = details: topical application of folic acid and creatine
skin characteristics = details: in vivo
dermal aging = details: animal studies; mechanism of reducing oxidative stress and apoptosis
[1] = system: UV-induced ceramide production; details: free radical scavenger
[2] = system: heparan-sulfate PGs (HS-PGs); details: organotypical model of corticosteroid atrophic human skin
MMP-1 = details: human keratinocytes; via ERK and AP-1 inhibition
wrinkle formation = details: clinical study
[3] = system: UV-irradiated human fibroblasts
photoaged skin = details: topical application

Compound: CN(CC(=O)O)C(=N)N [creatine]
- photoaging (photoaging): improved photoaging

Compound: C[C@]12CC[C@H](O)CC1=CC[C@@H]1[C@@H]2CC[C@]2(C)C(=O)CC[C@@H]12 [Dehydroepiandrosterone (DHEA), Dehydroepiandrosterone]
- effects on skin characteristics (skin characteristics): beneficial effects on skin characteristics

Compound: COc1ccc2[nH]cc(CCNC(C)=O)c2c1 [melatonin]
- dermal aging (dermal aging): slow down dermal aging

Compound: growth hormone
- dermal aging (dermal aging): slow down dermal aging

Compound: Vitamin E
- UV-induced ceramide production [1]: inhibited

Compound: Nc1nc2ncc(CNc3ccc(C(=O)N[C@@H](CCC(=O)O)C(=O)O)cc3)nc2c(=O)[nH]1 [folic acid]
- photoaging (photoaging): improved photoaging

Compound: C-Xyloside
- expression of heparan-sulfate PGs (HS-PGs) [2]: improved expression of heparan-sulfate PGs

Compound: Triphlorethol-A
- MMP-1 inhibition (MMP-1): inhibition of MMP-1

Compound: Ziyuglycoside
- expression of type I collagen (type I collagen): increased the expression of type I collagen in a dose-dependent manner
- wrinkle formation (wrinkle formation): decrease wrinkle formation

Compound: Oc1ccc(C=Cc2cc(O)cc(O)c2)cc1 [Resveratrol]
- aging and lifespan (laboratory animals): slow down aging and extend the lifespan

Compound: COc1cc(O)c(C(=O)[C@@H]2[C@H](CC=C(C)C)C(C)=CC[C@H]2c2ccccc2)c(O)c1 [Panduratin A]
- matrix metalloproteinase (MMP) I synthesis [3]: decreased
- type I procollagen synthesis [3]: increased

Compound: CCCCCCCC(=O)C(CCCCCC)C(=O)NC(CO)CO (stereo not drawn) [K6PC-5]
- skin barrier, fibroblast count and function (photoaged skin): improving skin barrier and increasing fibroblast count and function

Compound: lunasin
- epigenetic patterns (epigenetic patterns): modify epigenetic patterns
